Results: patent US8999957B2, “Heterocyclic compounds as ERK inhibitors” (Merck Sharp & Dohme Corp., priority 2010, dated 2015)
Read-outs that look alike come from different tables or passages of the source.

Legend:
[1] = target: fully phosphorylated, active Mouse ERK2 protein (Mus musculus (Mouse), UniProt P63085); assay: Active ERK2 (aERK) IMAP assay, condition 1; type: biochemical; settings: aERK assay condition 1, 30 μM ATP
Description: Active ERK2 (aERK) Assay: (Unless Indicated Otherwise, the Data Provided for aERK was obtained using Condition 1)
Activated ERK2 activity was also determined in the IMAP assay format using the procedure outlined above. […] Reactions proceeded for 30 minutes before termination by addition of 60 μl IMAP detection beads in binding buffer. Plates were read as above after 30 minute binding equilibration.

[2] = target: ERK protein (Mus musculus, UniProt P63085); assay: TdF (Temperature Dependence Fluorescence, thermal shift) assay for ERK; type: binding
Source text: Assays: TdF Assay for ERK […] The TdF assay was mainly conducted in the 96-well based CHROMO-4 real time fluorescence plate reader (BioRad). The Sypro Orange (Sigma-Aldrich), environmentally sensitive fluorescence dye, was used to monitor the protein folding-unfolding transition. Protein-ligand binding was gauged by the change (or shift) in the unfolding transition temperature (ΔTm) acquired at protein alone with respect to protein in the presence of ligand of interest. Compound of interest was first prepared in DMSO stock (typical concentration: 10 mM). […] Final percentage of DMSO resided in the sample was 2%. The sample plate was heated from 30° C. to 90° C. with thermal ramping rate of 1° C./min. […] The instrument thermal stability was ±0.2° C. The melting temperatures (Tm) for ERK protein under aforementioned conditions occurred at 61.0±0.2° C. and 64.8±02° C. respectively. Theoretical Basis for TdF-Based Ligand Binding Affinity Constant […] In brief, the binding constant of the ligand at the Tm is expressed as below: [formula] where T0 is the midpoint of unfolding for unliganded protein and Tm is the midpoint of unfolding in presence of ligand. [LTm] is free ligand at Tm. The ΔHu and ΔCpu are the enthalpy of unfolding and heat capacity change of unfolding for the protein respectively. Following algorithm derived by Winsor and coworker, the T0, ΔHu and ΔCpu can be determined separately from nonlinear regression fitting the protein alone melting curve: Where F(T) is the observed fluorescence intensity at any temperature T, Yn and Yu are the predicted fluorescence intensities for fully folded and unfolded protein, respectively; mn and mu are slope correction for changes in Yn and Yu with respect to changes in temperature (analogously replace T0 with Tm in the above equation for liganded protein to yield Tm). […] [formula] where ΔHL (T) is the van't Hoff enthalpy of ligand binding at temperature T and ΔCpL is the heat capacity upon ligand binding. For simplicity, the ΔCpL and ΔHL (T) were set to zero and −7 kcal/mol respectively.

[3] = target: fully phosphorylated, mouse aERK2 enzyme (Mus musculus (Mouse), UniProt P63085); assay: Active ERK2 (aERK) IMAP-FP assay, condition 2; type: biochemical; settings: active ERK2; read-out: aErk2 Ic50
How it was run: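 Phosphorylation by fully phosphorylated mouse ERK2 ran 40-45 min, then quenched with IMAP beads (1:1000) in binding buffer; fluorescence polarization read after 30 min binding equilibration.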

[4] = 3 μM ERK protein, uncertainty estimated ±50%, read-out: Kd TdF

Sequence of ERK protein (P63085 2-358 limits assumed): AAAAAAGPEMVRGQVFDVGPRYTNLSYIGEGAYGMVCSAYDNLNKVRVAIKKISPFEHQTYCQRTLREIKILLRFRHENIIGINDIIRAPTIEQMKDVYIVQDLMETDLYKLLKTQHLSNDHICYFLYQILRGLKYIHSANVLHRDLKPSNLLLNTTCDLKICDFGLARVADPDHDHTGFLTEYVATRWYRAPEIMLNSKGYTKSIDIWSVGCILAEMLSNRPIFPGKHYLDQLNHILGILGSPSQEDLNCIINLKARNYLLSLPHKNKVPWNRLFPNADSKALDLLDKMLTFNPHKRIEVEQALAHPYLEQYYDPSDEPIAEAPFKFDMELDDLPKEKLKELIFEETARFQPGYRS
Sequence of fully phosphorylated, mouse aERK2 enzyme (P63085 whole entry): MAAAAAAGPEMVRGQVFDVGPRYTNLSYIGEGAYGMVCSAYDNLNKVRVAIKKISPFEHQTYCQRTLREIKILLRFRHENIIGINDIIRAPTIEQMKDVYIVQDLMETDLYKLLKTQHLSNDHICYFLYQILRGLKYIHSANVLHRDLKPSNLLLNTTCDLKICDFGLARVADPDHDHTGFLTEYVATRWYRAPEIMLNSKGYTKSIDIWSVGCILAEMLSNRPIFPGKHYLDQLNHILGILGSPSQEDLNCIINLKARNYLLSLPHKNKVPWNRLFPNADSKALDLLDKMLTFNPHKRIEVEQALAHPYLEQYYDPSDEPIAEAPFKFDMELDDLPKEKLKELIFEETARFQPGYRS
Sequence of fully phosphorylated, active Mouse ERK2 protein (P63085 whole entry): as above

Row | SMILES | IC50 [1] [nM] | Kd [2, 4] [nM] | Kd ([2]; read-out: Kd TdF, 3 μM ERK protein, uncertainty estimated ±50%) [nM] | IC50 [3] [nM]
1 | Cc1cc(-c2n[nH]c3ccc(C(=O)N[C@@H]4CCCN(CC(=O)c5ccccc5F)C4)cc23)ccn1 | 32.9 | 2.4 | – | –
2 | COc1cccc(F)c1CN1C[C@@H](C)C[C@@H](NC(=O)c2ccc3[nH]nc(-c4ccc5nccn5c4)c3c2)C1 | 5.84 | 0.01 | – | –
3 | Cc1cc(-c2n[nH]c3ccc(C(=O)N[C@@H]4CCCN(Cc5cc6ccccc6o5)C4)cc23)ccn1 | 15.1 | 1.43 | – | –
4 | O=C(N[C@@H]1CCCN(Cc2ccncc2)C1)c1ccc2[nH]nc(-c3ccc4c(c3)CCO4)c2c1 | 626 | 76 | – | –
5 | COc1cccc(F)c1CN1CCC[C@@H](NC(=O)c2ccc3[nH]nc(-c4ccc(S(C)(=O)=O)cc4)c3c2)C1 | 195 | 1.37 | – | –
6 | [2H]C(c1c(F)cccc1OC)N1CCC[C@@H](NC(=O)c2ccc3[nH]nc(-c4ccnc(C)c4)c3c2)C1 (stereo partly shown) | 13.3 | 0.35 | – | –
7 | COc1cccc(F)c1CN1CCC[C@@H](NC(=O)c2ccc3[nH]nc(-c4ccc5nc(C)sc5c4)c3c2)C1 | 78.5 | 0.1 | – | –
8 | [2H]C1(N2CCC[C@@H](NC(=O)c3ccc4[nH]nc(-c5ccnc(C)c5)c4c3)C2)CCc2ccccc21 (stereo partly shown) | 62.5 | 0.34 | – | –
9 | O=C(N[C@@H]1CCCN(Cc2nccs2)C1)c1ccc2[nH]nc(-c3ccc4c(c3)CCO4)c2c1 | 251 | 10.5 | – | –
10 | Cc1cc(-c2n[nH]c3ccc(C(=O)N[C@@H]4CCCN(Cc5cc(F)c(Cl)cc5Cl)C4)cc23)ccn1 | 660 | 9.76 | – | –
11 | N#Cc1ccc(CN2CCC[C@@H](NC(=O)c3ccc4[nH]nc(-c5ccc6c(c5)CCO6)c4c3)C2)cc1 | 1000 | 82 | – | –
12 | CN(C)c1ccc(CN2CCC[C@@H](NC(=O)c3ccc4[nH]nc(-c5ccc6c(c5)CCO6)c4c3)C2)cc1 | 1000 | 1000 | – | –
13 | CN1CC(NC(=O)c2ccc3[nH]nc(-c4ccncc4)c3c2)CC(c2ccccc2)C1 (stereo not shown) [drawing 219] | – | 1.4 | – | –
14 | O=C(NC1CNCC(c2ccccc2)C1)c1ccc2[nH]nc(-c3ccncc3)c2c1 (stereo not shown) | – | 0.8 | – | –
15 | Cc1cc(-c2n[nH]c3ccc(C(=O)N[C@@H]4CCCN(Cc5ccncn5)C4)cc23)ccn1 | 507 | 20.5 | – | –
16 | COc1cccc(CN2CCC[C@@H](NC(=O)c3ccc4[nH]nc(-c5ccnc(C)c5)c4c3)C2)n1 | 220 | 2.33 | – | –
17 | Cc1cc(-c2n[nH]c3ccc(C(=O)N[C@@H]4CCCN(Cc5csc6ccccc56)C4)cc23)ccn1 | 18.7 | 0.53 | – | –
18 | COc1cccc(F)c1CN1CCC[C@@H](NC(=O)c2ccc3[nH]nc(-c4ccc5occc5c4)c3c2)C1 | 495 | 0.21 | – | –
19 | Cc1cc(-c2n[nH]c3ccc(C(=O)N[C@@H]4CCCN(Cc5c(C)cccc5C)C4)cc23)ccn1 | 89 | 0.13 | – | –
20 | O=C(N[C@@H]1CCCN(Cc2ccccc2F)C1)c1ccc2[nH]nc(-c3ccnc(C(F)(F)F)c3)c2c1 | 507 | 6.6 | – | –
21 | Cc1cc(-c2n[nH]c3ccc(C(=O)NC4CCCN(Cc5ncccn5)C4)cc23)ccn1 (stereo not shown) | 923 | 130 | – | –
22 | Cc1cc(-c2n[nH]c3ccc(C(=O)N[C@@H]4CCCN(CCc5ccccc5F)C4)cc23)ccn1 | 98.8 | 4.8 | – | –
23 | Cc1cc(-c2n[nH]c3ccc(C(=O)N[C@@H]4CCCN(C5CCc6ccccc65)C4)cc23)ccn1 (stereo partly shown) | 65.4 | 0.28 | – | –
24 | COc1cccc(F)c1CN1C[C@@H](NC(=O)c2ccc3[nH]nc(-c4ccnc(C)c4)c3c2)CCC1=O | 992 | 4.12 | – | –
25 | COc1cccc(F)c1CN1CCC[C@@H](NC(=O)c2ccc3[nH]nc(-c4ccc5cncn5c4)c3c2)C1 | 4.02 | 0.1 | – | –
26 | COc1cccc(F)c1CN1CCCC(NC(=O)c2ccc3[nH]nc(-c4ccc5c(c4)CCO5)c3c2)C1 (stereo not shown) | 33 | 0.52 | – | –
27 | O=C(NC1CNCCC1c1cccc(F)c1)c1ccc2[nH]nc(-c3ccncc3)c2c1 (stereo not shown) | – | 106 | – | –

Row | SMILES | IC50 [1] [nM] | Kd [2, 4] [nM] | Kd ([2]; read-out: Kd TdF, 3 μM ERK protein, uncertainty estimated ±50%) [nM] | IC50 [3] [nM]
28 | Cn1cc(CN2CCC[C@@H](NC(=O)c3ccc4[nH]nc(-c5ccc6c(c5)CCO6)c4c3)C2)c2ccccc21 | 158 | 11 | – | –
29 | COc1cccc(F)c1CN1CCC[C@@H](NC(=O)c2ccc3[nH]nc(-c4cccc(C(C)=O)c4)c3c2)C1 | 609 | 2.01 | – | –
30 | COc1cccc(F)c1CN1CC(NC(=O)c2ccc3[nH]nc(-c4ccnc(C)c4)c3c2)CC(OC)C1 (stereo not shown) | 39.1 | 0.42 | – | –
31 | COc1cccc(F)c1CN1C[C@@H](C)C[C@@H](NC(=O)c2ccc3[nH]nc(-c4ccc5nn(C)cc5c4)c3c2)C1 | 6.1 | 0.02 | – | –
32 | O=C(NC1CCCCNC1=O)c1ccc2[nH]nc(-c3ccncc3)c2c1 (stereo not shown) | – | 73 | – | –
33 | CCc1cc(-c2n[nH]c3ccc(C(=O)N[C@@H]4CCCN(Cc5ccccc5F)C4)cc23)ccn1 | 19.8 | 0.4 | – | –
34 | CC(=O)Nc1cc(-c2n[nH]c3ccc(C(=O)N[C@@H]4CCCN(Cc5c(F)cccc5F)C4)cc23)ccc1O | 224 | 1.29 | – | –
35 | COc1cccc(F)c1CN1CCC[C@@H](NC(=O)c2ccc3[nH]nc(-c4ccc(C#N)cc4)c3c2)C1 | 155 | 0.24 | – | –
36 | Cc1cc(-c2n[nH]c3ccc(C(=O)N[C@@H]4CCCN(CCc5ccccc5C(F)(F)F)C4)cc23)ccn1 | 86.9 | – | 2.2 | –
37 | COc1cccc(F)c1CN1C[C@H](C)C[C@@H](NC(=O)c2ccc3[nH]nc(-c4ccnc(C)c4)c3c2)C1 | 204 | 3.33 | – | –
38 | COc1cccc(F)c1CN1CCC[C@@H](NC(=O)c2ccc3[nH]nc(-c4cccc(C#N)c4)c3c2)C1 | 264 | 0.83 | – | –
39 | O=C(Nc1ccc2[nH]nc(-c3ccncc3)c2c1)C1CNCC(c2ccccc2)C1 (stereo not shown) | – | 8 | – | –
40 | COc1cccc(F)c1CN1CCC[C@@H](NC(=O)c2ccc3[nH]nc(-c4cccc(NC(C)=O)c4)c3c2)C1 | 286 | 1.38 | – | –
41 | Cc1cc(-c2n[nH]c3ccc(C(=O)N[C@@H]4CCCN(Cc5ccccc5F)C4)cc23)ccn1 | 10.7 | 0.5 | – | –
42 | COc1cccc(F)c1CN1C[C@H](C)C[C@@H](NC(=O)c2ccc3[nH]nc(-c4ccc5nccn5c4)c3c2)C1 | 10.6 | 0.03 | – | –
43 | Cc1cc(-c2n[nH]c3ccc(C(=O)N[C@@H]4CCCN(Cc5cc6ccccc6s5)C4)cc23)ccn1 | 90.1 | 3.97 | – | –
44 | Cn1cc2cc(-c3n[nH]c4ccc(C(=O)NC5C[C@@H]6C[C@H]5N(Cc5c(F)cccc5F)C6)cc34)ccc2n1 (stereo partly shown) | 881 | 3.29 | – | –
45 | Cc1cc(-c2n[nH]c3ccc(C(=O)N[C@@H]4CCCN(Cc5ccccc5O)C4)cc23)ccn1 | 140 | 2.36 | – | –
46 | COc1cccc(F)c1CN1CC(NC(=O)c2ccc3[nH]nc(-c4ccc5nccn5c4)c3c2)CC(C(=O)O)C1 (stereo not shown) | 64.7 | 0.26 | – | –
47 | O=C(N[C@@H]1CCCN(Cc2ccccn2)C1)c1ccc2[nH]nc(-c3ccc4c(c3)CCO4)c2c1 | 591 | 9.2 | – | –
48 | COc1cccc(F)c1CN1CCC[C@@H](NC(=O)c2ccc3[nH]nc(-c4ccc5nc(C)oc5c4)c3c2)C1 | 16.4 | 0.1 | – | –
49 | Cc1cc(-c2n[nH]c3ccc(C(=O)N[C@@H]4CCCN(Cc5scnc5C)C4)cc23)ccn1 | 875 | 20.3 | – | –
50 | O=C(NC1CN(C(=O)OCc2ccccc2)CCNC1=O)c1ccc2[nH]nc(-c3ccncc3)c2c1 (stereo not shown) | – | 290 | – | –
51 | COCCNC(=O)[C@@H]1CC[C@@H](NC(=O)c2ccc3[nH]nc(-c4ccnc(C)c4)c3c2)CN1Cc1c(F)cccc1OC [N-{(3R,6S)-1-(2-fluoro-6-methoxybenzyl)-6-[(2-methoxyethyl)carbamoyl]piperidin-3-yl}-3-(2-methylpyridin-4-yl)-1H-indazole-5-carboxamide] | – | – | – | 56.7
52 | COc1cccc(F)c1CN1C[C@H](NC(=O)c2ccc3[nH]nc(-c4ccncc4)c3c2)CC[C@H]1C(=O)N1CCCCC1 [N-[(3R,6S)-1-(2-fluoro-6-methoxybenzyl)-6-(piperidin-1-ylcarbonyl)piperidin-3-yl]-3-pyridin-4-yl-1H-indazole-5-carboxamide] | – | – | – | 59.9
53 | COc1cccc(F)c1CN1C[C@H](NC(=O)c2ccc3[nH]nc(-c4ccc5nc(C)sc5c4)c3c2)CC[C@H]1C(N)=O [N-[(3R,6S)-6-carbamoyl-1-(2-fluoro-6-methoxybenzyl)piperidin-3-yl]-3-(2-methyl-1,3-benzothiazaol-6-yl)-1H-indazole-5-carboxamide] | – | – | – | 3.6
